Laboratory results as given in ChEMBL document CHEMBL5729389, “1,4-diphenyl-1H-imidazole and 2,4-diphenylthiazole derivatives and preparation method therefor and use thereof” (2022).

Target: Toll-like receptor 1/2 (Homo sapiens, UniProt O60603+Q15399)
Experiment: TBD: TBD
Assay type: protein-complex assay

Sequence of Toll-like receptor 1/2 (O60603 whole entry): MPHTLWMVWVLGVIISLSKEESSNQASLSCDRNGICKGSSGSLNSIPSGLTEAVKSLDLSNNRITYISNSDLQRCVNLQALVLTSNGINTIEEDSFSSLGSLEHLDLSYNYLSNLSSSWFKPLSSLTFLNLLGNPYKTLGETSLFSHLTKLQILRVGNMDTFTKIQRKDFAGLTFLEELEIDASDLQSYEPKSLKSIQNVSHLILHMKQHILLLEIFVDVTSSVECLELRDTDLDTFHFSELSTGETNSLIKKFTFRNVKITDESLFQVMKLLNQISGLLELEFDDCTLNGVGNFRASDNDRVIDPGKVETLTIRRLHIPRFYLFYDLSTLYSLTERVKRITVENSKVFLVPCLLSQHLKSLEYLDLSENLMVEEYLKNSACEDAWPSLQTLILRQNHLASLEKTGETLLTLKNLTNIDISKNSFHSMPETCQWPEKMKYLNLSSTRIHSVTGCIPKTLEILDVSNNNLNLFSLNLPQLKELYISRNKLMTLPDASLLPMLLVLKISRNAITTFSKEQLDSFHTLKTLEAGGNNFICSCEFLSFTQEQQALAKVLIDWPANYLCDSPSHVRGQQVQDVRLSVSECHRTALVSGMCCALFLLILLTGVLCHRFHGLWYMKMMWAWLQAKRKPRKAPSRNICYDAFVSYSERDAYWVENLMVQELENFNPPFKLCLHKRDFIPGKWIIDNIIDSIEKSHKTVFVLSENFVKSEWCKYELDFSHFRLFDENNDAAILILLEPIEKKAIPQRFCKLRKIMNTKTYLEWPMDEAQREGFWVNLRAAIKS
Sequence of Toll-like receptor 1/2 (Q15399 whole entry): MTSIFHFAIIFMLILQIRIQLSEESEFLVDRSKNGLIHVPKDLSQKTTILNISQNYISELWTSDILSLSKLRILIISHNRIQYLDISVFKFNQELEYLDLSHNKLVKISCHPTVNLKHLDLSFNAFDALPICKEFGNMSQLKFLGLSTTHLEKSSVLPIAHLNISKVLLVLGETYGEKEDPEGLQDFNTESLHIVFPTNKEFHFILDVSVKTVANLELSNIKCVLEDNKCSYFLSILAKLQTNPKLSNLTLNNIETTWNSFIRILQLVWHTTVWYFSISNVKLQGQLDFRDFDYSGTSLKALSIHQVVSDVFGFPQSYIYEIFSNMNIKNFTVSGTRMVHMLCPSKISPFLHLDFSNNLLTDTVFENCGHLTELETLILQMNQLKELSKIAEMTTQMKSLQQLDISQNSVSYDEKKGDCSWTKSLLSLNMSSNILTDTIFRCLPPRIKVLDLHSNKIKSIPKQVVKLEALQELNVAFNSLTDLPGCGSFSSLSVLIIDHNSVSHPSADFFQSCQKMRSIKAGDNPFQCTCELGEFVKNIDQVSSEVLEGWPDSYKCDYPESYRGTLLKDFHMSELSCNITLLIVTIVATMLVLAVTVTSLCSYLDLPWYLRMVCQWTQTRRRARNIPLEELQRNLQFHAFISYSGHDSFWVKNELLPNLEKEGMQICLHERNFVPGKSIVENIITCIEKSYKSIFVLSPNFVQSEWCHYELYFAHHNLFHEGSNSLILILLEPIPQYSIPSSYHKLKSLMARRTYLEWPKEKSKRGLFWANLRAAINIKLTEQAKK

| EC50 | Compound |
| --- | --- |
| > 1 µM | O=[N+]([O-])c1ccc(-c2nc(-c3ccc(C(F)(F)F)cc3)cs2)cc1 |
| > 1 µM | COc1ccc(-c2nc(-c3ccc(C(F)(F)F)cc3O)cs2)cc1 |
| > 1 µM | O=[N+]([O-])c1ccc(Cl)c(-c2nc(-c3ccc(C(F)(F)F)cc3O)cs2)c1 |
| > 1 µM | Oc1cc(C(F)(F)F)ccc1-c1csc(-c2ccc(C(F)(F)F)cc2)n1 |
| 0.0491 µM | CNc1ccc([N+](=O)[O-])cc1-n1cnc(-c2ccc(C(F)(F)F)cc2OS(=O)(=O)O)c1 |
| > 1 µM | CNc1ccc([N+](=O)[O-])cc1-n1cnc(-c2ccc(C(F)(F)F)cc2OCCN)c1 |
| > 1 µM | FC(F)(F)c1ccc(-c2csc(-c3ccc(C(F)(F)F)cc3)n2)cc1 |
